From patent US8846928B2 (Portola Pharmaceuticals, Inc., priority 2010, dated 2014)

molecular target: T1, full length active recombinant SYK enzyme (Homo sapiens, UniProt P43405); assay: Inhibition of Syk tyrosine phosphorylation activity (LANCE TR-FRET kinase assay); type: biochemical
T1 construct: full length active recombinant SYK enzyme (Millipore, Calif.); purchased Millipore
Experimental: Inhibition of Syk Tyrosine Phosphorylation Activity
Potency of candidate molecules for inhibiting Syk tyrosine phosphorylation activity is assessed by measuring the ability of a test compound to inhibit Syk-mediated tyrosine phosphorylation of a Syk-specific substrate.
SYK tyrosine phosphorylation activity is measured using the LANCE™ Technology developed by Perkin Elmer Life and Analytical Sciences (Boston, Mass.). LANCE™ refers to homogeneous time resolved fluorometry applications using techniques such as time-resolved fluorescence resonance energy transfer assay (TR-FRET) (see generally for procedures in Perkin Elmer Application Note—How to Optimize a Tyrosine Kinase Assay Using Time Resolved Fluorescence-Based LANCE Detection, wwww.perkinelmer.com/lifesciences). The assay principle involves detection of a phosphorylated substrate using energy transfer from a phosphospecific europium-labeled antibody to streptavidin-allophycocyanin as an acceptor.
To test the ability of candidate molecules to inhibit SYK tyrosine phosphorylation activity, molecules are reconstituted in 30% DMSO and serially diluted 1:3 with the final dilution containing DMSO in the absence of the candidate molecule. The final DMSO concentration in the assay is 3%. Kinase assays are performed as a two part reaction. […] The second reaction involves termination of the kinase reaction and the simultaneous addition of the detection reagents—europium-labeled anti-phosphotyrosine reagent (Eu-W1024-PY100, Perkin Elmer, Boston, Mass.) and Streptavidin-Allophycocyanin detection reagent (SA-APC, Prozyme, Calif.). The kinase reaction is performed in a black U-bottom 96-well microtitre plate. The final reaction volume is 50 μL and contains a final concentration of 1 nM active SYK enzyme, 550 nM SYK-substrate, and 100 μM ATP diluted in a buffer containing 50 mM Tris pH 7.5, 5 mM MgCl2, and 1 mM DTT. The reaction is allowed to proceed for 1 hour at room temperature. The quench buffer contains 100 mM Tris pH 7.5, 300 mM NaCl2, 20 mM EDTA, 0.02% Brij35, and 0.5% BSA. The detection reagents are added to the reaction mixture at the following dilutions-1:500 for Eu-W1024-PY100 and 1:250 for SA-APC. The kinase reaction is terminated by the addition of 50 μL quench buffer containing the detection reagents. The detection is allowed to proceed for 1 hr at room temperature. Detection of the phosphorylated substrate in the absence and presence of inhibitors is measured in the TR-FRET instrument, Analyst HT (Molecular Probes, Sunnyvale, Calif.) and the condition for measurements are set up using CriterionHost Release 2.0 (Molecular Probes, Sunnyvale, Calif.). The settings used are a follows: excitation 360 nm, emission 665-7.5 nm, beam splitter 350 nm 50/50, flash 100 pulses, delay 60 us, integration 400 us, z-height 2 mm. […] IC50s were derived by non-linear regression analysis. […]

How did the IC50 turn out when `NC(=O)c1cc(F)c(N[C@@H]2CCCC[C@@H]2N)nc1Nc1ccc2ncsc2c1` [Example 60, 6-((1R,2S)-2-aminocyclohexylamino)-2-(benzo[d]thiazol-6-ylamino)-5-fluoronicotinamide] was run?
Its IC50 is < 1 nM.

For `NC(=O)c1cc(F)c(N[C@@H]2CCCC[C@@H]2N)nc1Nc1ccc2nccn2c1` [Example 61, 6-((1R,2S)-2-aminocyclohexylamino)-5-fluoro-2-(imidazo[1,2-a]pyridin-6-ylamino)nicotinamide], which IC50 is on record?
Its IC50 is 1 to 10 nM.

For `NC(=O)c1cc(F)c(N[C@@H]2CCCC[C@@H]2N)nc1Nc1ccn2ccnc2c1` [Example 62, 6-((1R,2S)-2-aminocyclohexylamino)-5-fluoro-2-(imidazo[1,2-a]pyridin-7-ylamino)nicotinamide], which IC50 is on record?
Its IC50 is 1 to 10 nM.

Which IC50 does the source give for `Cn1ccc2cc(Nc3nc(N[C@@H]4CCCC[C@@H]4N)c(F)cc3C(N)=O)ccc21` [Example 63, 6-((1R,2S)-2-aminocyclohexylamino)-5-fluoro-2-(1-methyl-1H-indol-5-ylamino)nicotinamide] here?
Its IC50 is 1 to 10 nM.

Which IC50 does the source give for `Cn1ccc2c(Nc3nc(N[C@@H]4CCCC[C@@H]4N)c(F)cc3C(N)=O)cccc21` [Example 64, 6-((1R,2S)-2-aminocyclohexylamino)-5-fluoro-2-(1-methyl-1H-indol-4-ylamino)nicotinamide] here?
Its IC50 is < 1 nM.

For `Cn1cc2c(Nc3nc(N[C@@H]4CCCC[C@@H]4N)c(F)cc3C(N)=O)cccc2n1` [Example 65, 6-((1R,2S)-2-aminocyclohexylamino)-5-fluoro-2-(2-methyl-2H-indazol-4-ylamino)nicotinamide], which IC50 is on record?
Its IC50 is 100 to 1000 nM.

For `NC(=O)c1cc(F)c(N[C@@H]2CCCC[C@@H]2N)nc1Nc1ccc2ncccc2c1` [Example 66, 6-((1R,2S)-2-aminocyclohexylamino)-5-fluoro-2-(quinolin-6-ylamino)nicotinamide], which IC50 is on record?
Its IC50 is < 1 nM.

For `NC(=O)c1cc(F)c(N[C@@H]2CCCC[C@@H]2N)nc1Nc1ccc2cnccc2c1` [Example 67, 6-((1R,2S)-2-aminocyclohexylamino)-5-fluoro-2-(isoquinolin-6-ylamino)nicotinamide], which IC50 is on record?
The IC50 was < 1 nM.

How did the IC50 turn out when `NC(=O)c1cc(F)c(N[C@@H]2CCCC[C@@H]2N)nc1Nc1ccc2ccncc2c1` [Example 68, 6-((1R,2S)-2-aminocyclohexylamino)-5-fluoro-2-(isoquinolin-7-ylamino)nicotinamide] was run?
Its IC50 is 1 to 10 nM.

For `NC(=O)c1cc(F)c(N[C@@H]2CCCC[C@@H]2N)nc1Nc1ccc2cccnc2c1` [Example 69, 6-((1R,2S)-2-aminocyclohexylamino)-5-fluoro-2-(quinolin-7-ylamino)nicotinamide], which IC50 is on record?
Its IC50 is 1 to 10 nM.

With `NC(=O)c1cc(F)c(N[C@@H]2CCCC[C@@H]2N)nc1Nc1cnc2ccccc2c1` [Example 70, 6-((1R,2S)-2-aminocyclohexylamino)-5-fluoro-2-(quinolin-3-ylamino)nicotinamide] as the compound, how does the IC50 read?
Its IC50 is 1 to 10 nM.

Which IC50 does the source give for `NC(=O)c1cc(F)c(N[C@@H]2CCCC[C@@H]2N)nc1Nc1cncc2ccccc12` [Example 71, 6-((1R,2S)-2-aminocyclohexylamino)-5-fluoro-2-(isoquinolin-4-ylamino)nicotinamide] here?
The IC50 was 1 to 10 nM.

`NC(=O)c1cc(F)c(N[C@@H]2CCCC[C@@H]2N)nc1Nc1ccnc2ccccc12` [Example 72] was tested. Which IC50 did it give?
The IC50 was 1 to 10 nM.

With `NC(=O)c1cc(F)c(N[C@@H]2CCCC[C@@H]2N)nc1Nc1cccc2ncccc12` [Example 73, 6-((1R,2S)-2-aminocyclohexylamino)-5-fluoro-2-(quinolin-5-ylamino)nicotinamide] as the compound, how does the IC50 read?
Its IC50 is 1 to 10 nM.

With `NC(=O)c1cc(F)c(N[C@@H]2CCCC[C@@H]2N)nc1Nc1cccc2cnccc12` [Example 74, 6-((1R,2S)-2-aminocyclohexylamino)-5-fluoro-2-(isoquinolin-5-ylamino)nicotinamide] as the compound, how does the IC50 read?
The IC50 was 1 to 10 nM.

Which IC50 does the source give for `NC(=O)c1cc(F)c(N[C@@H]2CCCC[C@@H]2N)nc1Nc1cccc2ccncc12` [Example 75, 6-((1R,2S)-2-aminocyclohexylamino)-5-fluoro-2-(isoquinolin-8-ylamino)nicotinamide] here?
Its IC50 is 100 to 1000 nM.

Which IC50 does the source give for `NC(=O)c1cc(F)c(N[C@@H]2CCCC[C@@H]2N)nc1Nc1ccc2nccnc2c1` [Example 76, 6-((1R,2S)-2-aminocyclohexylamino)-5-fluoro-2-(quinoxalin-6-ylamino)nicotinamide] here?
The IC50 was 1 to 10 nM.

For `NC(=O)c1cc(F)c(N[C@@H]2CCCC[C@@H]2N)nc1Nc1cnc2nccnc2c1` [Example 77, 6-((1R,2S)-2-aminocyclohexylamino)-5-fluoro-2-(pyrido[3,2-b]pyrazin-7-ylamino)nicotinamide], which IC50 is on record?
Its IC50 is 10 to 100 nM.

For `NC(=O)c1cc(F)c(N[C@@H]2CCCC[C@@H]2N)nc1Nc1ccc2c(c1)OCCO2` [Example 78], which IC50 is on record?
Its IC50 is 1 to 10 nM.

How did the IC50 turn out when `COCCOc1cccc(Nc2nc(N[C@@H]3CCCC[C@@H]3N)c(F)cc2C(N)=O)c1` [Example 79, 6-((1R,2S)-2-aminocyclohexylamino)-5-fluoro-2-(3-(2-methoxyethoxy)phenylamino)nicotinamide] was run?
Its IC50 is 1 to 10 nM.

`NC(=O)c1cc(F)c(N[C@@H]2CCCC[C@@H]2N)nc1Nc1cccc(OC2CCOCC2)c1` [Example 80, 6-((1R,2S)-2-aminocyclohexylamino)-5-fluoro-2-(3-(tetrahydro-2H-pyran-4-yloxy)phenylamino)nicotinamide] was tested. Which IC50 did it give?
Its IC50 is 1 to 10 nM.

Which IC50 does the source give for `NC(=O)c1cc(F)c(N[C@@H]2CCCC[C@@H]2N)nc1Nc1ccc(OC2CCOCC2)cc1` [Example 81, 6-((1R,2S)-2-aminocyclohexylamino)-5-fluoro-2-(4-(tetrahydro-2H-pyran-4-yloxy)phenylamino)nicotinamide] here?
Its IC50 is 10 to 100 nM.

`Cc1cc(Nc2nc(N[C@@H]3CCCC[C@@H]3N)c(F)cc2C(N)=O)sn1` [Example 82, 6-((1R,2S)-2-aminocyclohexylamino)-5-fluoro-2-(3-methylisothiazol-5-ylamino)nicotinamide] was tested. Which IC50 did it give?
The IC50 was 1 to 10 nM.

Which IC50 does the source give for `Cn1cc(Nc2nc(N[C@@H]3CCCC[C@@H]3N)c(F)cc2C(N)=O)cn1` [Example 83, 6-((1R,2S)-2-aminocyclohexylamino)-5-fluoro-2-(1-methyl-1H-pyrazol-4-ylamino)nicotinamide] here?
Its IC50 is 10 to 100 nM.

With `NC(=O)c1cc(F)c(N[C@@H]2CCCC[C@@H]2N)nc1Nc1ccnnc1` [Example 84] as the compound, how does the IC50 read?
Its IC50 is 100 to 1000 nM.

How did the IC50 turn out when `Cc1cc(Nc2nc(N[C@@H]3CCCC[C@@H]3N)c(F)cc2C(N)=O)ccn1` [Example 85, 6-((1R,2S)-2-aminocyclohexylamino)-5-fluoro-2-(2-methylpyridin-4-ylamino)nicotinamide] was run?
Its IC50 is 1 to 10 nM.

How did the IC50 turn out when `Cc1cc(Nc2nc(N[C@@H]3CCCC[C@@H]3N)c(F)cc2C(N)=O)cc(C)n1` [Example 86, 6-((1R,2S)-2-aminocyclohexylamino)-2-(2,6-dimethylpyridin-4-ylamino)-5-fluoronicotinamide] was run?
The IC50 was 1 to 10 nM.

How did the IC50 turn out when `Cc1cncc(Nc2nc(N[C@@H]3CCCC[C@@H]3N)c(F)cc2C(N)=O)c1` [Example 87, 6-((1R,2S)-2-aminocyclohexylamino)-5-fluoro-2-(5-methylpyridin-3-ylamino)nicotinamide] was run?
The IC50 was 1 to 10 nM.

Which IC50 does the source give for `COc1cncc(Nc2nc(N[C@@H]3CCCC[C@@H]3N)c(F)cc2C(N)=O)c1` [Example 88, 6-((1R,2S)-2-aminocyclohexylamino)-5-fluoro-2-(5-methoxypyridin-3-ylamino)nicotinamide] here?
Its IC50 is 1 to 10 nM.

With `NC(=O)c1cc(F)c(N[C@@H]2CCCC[C@@H]2N)nc1Nc1cncc(F)c1` [Example 89, 6-((1R,2S)-2-aminocyclohexylamino)-5-fluoro-2-(5-fluoropyridin-3-ylamino)nicotinamide] as the compound, how does the IC50 read?
Its IC50 is 1 to 10 nM.

How did the IC50 turn out when `COC[C@H](CN)Nc1nc(Nc2cccc(-n3nccn3)c2)c(C(N)=O)cc1F` [Example 91, (S)-2-(3-(2H-1,2,3-triazol-2-yl)phenylamino)-6-(1-amino-3-methoxypropan-2-ylamino)-5-fluoronicotinamide] was run?
Its IC50 is 1 to 10 nM.

With `CC[C@H](CN)Nc1nc(Nc2cccc(-c3ncccn3)c2)c(C(N)=O)cc1F` [Example 92, (R)-6-(1-aminobutan-2-ylamino)-5-fluoro-2-(3-(pyrimidin-2-yl)phenylamino)nicotinamide] as the compound, how does the IC50 read?
The IC50 was 10 to 100 nM.

Which IC50 does the source give for `CC[C@H](CN)Nc1nc(Nc2ccc3ncsc3c2)c(C(N)=O)cc1F` [Example 93, (R)-6-(1-aminobutan-2-ylamino)-2-(benzo[d]thiazol-6-ylamino)-5-fluoronicotinamide] here?
Its IC50 is 1 to 10 nM.
